Columns and labels:
[1] = system: Mexican bean beetle (Epilachna varivestis, Muls.) larvae; assay: Mexican bean beetle leaf spray test; format: in vivo; set-up: key: A: excellent control; B: partial control; C: no control at 500 ppm; conditions: 500 parts per million, fourth instar larvae, three days
Protocol: Suspensions of the test compounds were prepared by dissolving one gram of compound in 50 milliliters of acetone in which had been dissolved 0.1 gram (10 percent of the weight of compound) of an alkylphenoxy polyethoxyethanol surfactant, as an emulsifying or dispersing agent. The resulting solution was mixed into 150 milliliters of water to give roughly 200 milliliters of a suspension containing the compound in finely divided form. The thus-prepared stock suspension contained 0.5 percent by weight of compound. The concentrations in parts per million by weight employed in the tests described hereinbelow were obtained by appropriate dilutions of the stock suspension with water. The test procedures were as follows:
Fourth instar larvae of the Mexican bean beetle (Epilachna varivestis, Muls.), reared on Tendergreen bean plants at a temperature of 80±5° F. and 50±5° F. percent relative humdity, were the test insects.
The test compounds were formulated by diluting the stock suspension with water to give a suspension containing 500 parts of test compound per million parts of final formulation. Tendergreen bean plants of standard height and age were placed on a revolving turntable and sprayed with 100-110 milliliters of test compound formulation by use of a DeVilbiss spray gun set at 40 psig air pressure. This application, which lasted 25 seconds, was sufficient to wet the plants to run-off. As a control, 100-110 milliliters of a water-acetone-emulsifier solution containing no test compound was also sprayed on infested plants. When dry, the paired leaves were separated and each was placed in a 9 centimeter Petri dish lined with moistened filter paper. Five randomly selected larvae were introduced into each dish, and the dishes were closed. The closed dishes were labeled and held at a temperature of 80±5° F., for three days. Although the larvae could easily consume the leaf within 24 to 48 hours, no more food was added. Larvae which were unable to move the length of the body, even upon stimulation, were considered dead.
In these tests the pesticidal activity of the compounds at the indicated dosage rate against aphid, Southern Armyworm, Bean Beetle and housefly was rated as follows: […]

[2] = system: housefly adults (Musca domestica); assay: Comparative residual effect in soil; format: in vivo
Protocol: Selected species of the new compounds were evaluated for their residual pesticidal activity in soil. […] The residual activity test were conducted using five to seven-day old housefly adults (Musca domestica).
The soil mixture used was one part agricultural soil and three parts sand. The agricultural soil was stored in plastic bags in a freezer, immediately after removal from the field. This was done to reduce microbial multiplication. Two weeks prior to use, the soil was thawed and held at room temperature to allow microbial population to equilibrate. The sand and soil were sifted to remove clumps and debris and were then blended by rolling on a roller mill in a closed metal container. The moisture level was adjusted to 15% by weight.
The concentration in the soil of the compound to be tested was four times the amount (in parts per million) necessary to achieve a mortality rate of 50% on contact with the soil (LD50). This is in accordance with the procedure developed by C. R. Harris of the Research Institute, Canadian Department of Agriculture, London, Ontario. Such procedure is disclosed in "Biological Activity of Chloropyrifos, Chlorpyrifor-Methyl, Phorate, and Counter® in Soil", The Canadian Entomologist, Vol. 109, pp. 1115-1120 (August 1977); and in "Laboratory Studies on the Persistance of Biological Activity of Some Insecticides in Soils", Journal of Economic Entomology, Vol. 62, No. 6, pp. 1437-1441 (December 1969).
An appropriate amount of compound was dissolved in an acetone--Triton solution and was diluted with water. Five mililiters of the formulated chemical was applied to four ounces of soil mixture and rolled in a 16-ounce glass jar to blend the compound evenly with the soil. Ten mililiters of granular cane sugar was then mixed thoroughly with the treated soil in an eight-ounce plastic container.
Twenty-five housefly adults, anesthetized with CO2, were then transferred to the soil and were covered with a perforated plastic lid. The test containers were held for 24 hours in a constant environment at a temperature of 80±5° F. and a relative humidity of […]. Mortality was based on the ability of the fly to move in a normal manner without spinning.
The above process was repeated on treated soil which had been incubated at 25° C. and 90% relative humidity for 1, 4, 6 and 8 weeks after initial exposure. This was necessary because the soil is incubated without sugar, sugar being added at the time of reinfestation. For this reason, appropriate volumes of soil had to be treated at the start of the soil test to last for the expected residual period.

SMILES: CSC(C)=NOC(=O)N(C)SN(C)C(=O)Oc1cccc(C=O)c1 [Compound 3]
- Mexican Bean Beetle, pesticidal activity rating [1]: A
- Residual effect in soil (mortality), 0 weeks ([2]; 0 weeks, soil concentration four times LD50, housefly, 24 hours): 100
- Residual effect in soil (mortality), 1 week ([2]; 1 week, soil concentration four times LD50, 25° C., 90% relative humidity, 10080 min): 100
- Residual effect in soil (mortality), 4 weeks ([2]; 4 weeks, soil concentration four times LD50, 25° C., 90% relative humidity, 40320 min): 73
- Residual effect in soil (mortality), 8 weeks ([2]; 8 weeks, soil concentration four times LD50, 25° C., 90% relative humidity, 80640 min): 40
- Residual Activity (weeks) ([2]; soil concentration four times LD50, housefly): 4-8 weeks
